According to US4916220A, “Palmitoyl-fructose-1,6-diphosphate, its therapeutic use and relevant preparation methods” (Biomedica Foscama Industria Chimico-Farmaceutica, priority 1988, dated 1990):
Read-outs that look alike come from different tables or passages of the source.

Tests used:
[1] = system: entrance of ^45Ca in small slices of heart; experiment: Effect on the entrance of ^45Ca in small slices of heart; assay type: cell-based; conditions: 3 min. at 25° C., 0.5 mM Ca; for effect on the entrance of ^45Ca: result in words
Description: The effect on the entrance of ^45 Ca in small slices of heart incubated for 3 min. at 25° C. with 0.5 mM Ca is inhibitory both with FDP and with DPF and therefore both seem to protect the tissue from the anoxy occurring with the entrance of Ca.

[2] = system: perfused rat heart; experiment: Action on perfused rat heart (inotropic and chronotropic); assay type: cell-based; conditions: for EC50: biphasic inotropic and chronotropic effect, read-out: ED50 (perfused rat heart); for action on perfused heart (inotropic and chronotropic): result in words, final concentration
[3] = system: small slices of rat heart; experiment: Attack of ^14C-FDP and ^14C-DPF to small slices of rat heart; assay type: cell-based; conditions: for Attack to small slices of rat heart: 5 mM, 40 min incubation at 25° C., 3 tests average
Source text: Small slices of rat heart were used to study comparatively the attack of ^14 C-FDP and ^14 C-DPF, the latter obtained by palmitoylation of a mixture of "hot" and "cold" FDP.

[4] = system: organs (heart, kidneys, liver); experiment: Radioactivity accumulated in organs after administration per os to rats; assay type: in vivo, rat; conditions: 3,000,000 dpm total, 1 hour after administration
Description: The administration to rats of ^14 C-FDP and ^14 C-DPF per os (3,000,000 dpm total) allowed measurement of the radioactivity accumulated 1 hour after administration at the level of the organs and the results are reported in Table 2.

Row | IC50 ([1]; 0.05 h) [mM] | EC50 ([2]; Rattus norvegicus) [mM] | Compound | IC50 [1] [mM] | effect on the entrance of ^45Ca [1] | EC50 [2] [mM] | action on perfused heart (inotropic and chronotropic) [2] | Attack to small slices of rat heart [3] [nmoles/100 mg] | membrane affinity higher than that of FDP ([3]; relative to FDP) [%] | Accumulation of radioactivity, Heart [4] | Accumulation of radioactivity, Kidneys [4] | Accumulation of radioactivity, Liver [4]
1 |  |  | palmitoyl-fructose-1,6-diphosphate [DPF] | 5.5 | inhibitory | 0.04 | biphasic effect but its effect appears at lower doses | 344 ± 16 | 30 | 1620 | 1324 | 1434
2 | 8 | 0.1 | O=C(COP(=O)(O)O)[C@@H](O)[C@H](O)[C@H](O)COP(=O)(O)O [FDP, fructose-1,6-diphosphate] |  | inhibitory |  | biphasic, i.e. inotropic and chronotropic, positive at concentrations lower than 1 mM (final) and negative for higher concentrations | 260 ± 20 |  | 508 | 395 | 624
